Assay results: ChEMBL document CHEMBL4673175, “An epigrammatic status of the azole-based antimalarial drugs” (RSC Med Chem, 2020)
Converted amounts (≈) assume the structure as drawn.

System: Plasmodium
Test: Antimalarial activity against Plasmodium
Type: functional
Conditions: not given

Structure (SMILES)	IC50 [µg/mL]
COc1ccc(NC(=S)N/N=C(\C)c2nc3cc(Cl)ccc3[nH]2)cc1	0.003 (≈ 0.00802 µM)
C/C(=N\NC(=S)Nc1ccc(I)cc1)c1nc2cc(Cl)ccc2[nH]1	0.003 (≈ 0.00639 µM)
C/C(=N\NC(=S)Nc1ccc(Cl)cc1Cl)c1nc2cc(Cl)ccc2[nH]1	0.003 (≈ 0.00727 µM)
C/C(=N\NC(=S)NCc1ccccc1)c1nc2cc(Cl)ccc2[nH]1	0.003 (≈ 0.00838 µM)
C/C(=N\NC(=S)Nc1ccccc1)c1nc2cc(Cl)ccc2[nH]1	0.003 (≈ 0.00872 µM)
C/C(=N\NC(=S)Nc1ccc(C)cc1)c1nc2cc(Cl)ccc2[nH]1	0.003 (≈ 0.00838 µM)
CCNC(=S)N/N=C(\C)c1nc2cc(Cl)ccc2[nH]1	0.003 (≈ 0.0101 µM)
CCCCNC(=S)N/N=C(\C)c1nc2cc(Cl)ccc2[nH]1	0.003 (≈ 0.00926 µM)
C/C(=N\NC(=S)NC(C)(C)C)c1nc2cc(Cl)ccc2[nH]1	0.003 (≈ 0.00926 µM)
C/C(=N\NC(=S)NC(C)C)c1nc2cc(Cl)ccc2[nH]1	0.003 (≈ 0.00968 µM)
C/C(=N\NC(=S)Nc1ccc(Cl)cc1)c1nc2cc(Cl)ccc2[nH]1	0.003 (≈ 0.00793 µM)
C/C(=N\NC(=S)Nc1ccc([N+](=O)[O-])cc1)c1nc2cc(Cl)ccc2[nH]1	0.003 (≈ 0.00772 µM)
COc1ccccc1NC(=S)N/N=C(\C)c1nc2cc(Cl)ccc2[nH]1	0.003 (≈ 0.00802 µM)
C/C(=N\NC(=S)NC1CCCCC1)c1nc2cc(Cl)ccc2[nH]1	0.003 (≈ 0.00857 µM)
COc1cccc(NC(=S)N/N=C(\C)c2nc3cc(Cl)ccc3[nH]2)c1	0.003 (≈ 0.00802 µM)
C/C(=N\NC(=S)NC(=O)c1ccccc1)c1nc2cc(Cl)ccc2[nH]1	0.003 (≈ 0.00807 µM)
C/C(=N\NC(N)=S)c1nc2cc(Cl)ccc2[nH]1	0.003 (≈ 0.0112 µM)
C/C(=N\NC(=S)Nc1ccc(F)cc1)c1nc2cc(Cl)ccc2[nH]1	0.003 (≈ 0.00829 µM)

System: Plasmodium falciparum
Test: Antimalarial activity against chloroquine sensitive Plasmodium falciparum assessed as reduction in parasite growth incubated for 48 hrs
Type: functional, organism-based
Conditions: not given

Structure (SMILES)	IC50 [µg/mL]
Cc1cn(-c2c(C3CC(c4ccccc4)=NO3)c(C)nn2-c2ccccc2)cn1 (configuration not stated)	0.012 (≈ 0.0313 µM)
Cc1nn(-c2ccccc2)c(-n2ccnc2)c1C1CC(c2ccc(O)cc2)=NN1 (configuration not stated)	0.012 (≈ 0.0312 µM)
Cc1nn(-c2ccccc2)c(-n2ccnc2)c1C1=CC(c2ccc(O)cc2)=NC2Nc3ccccc3N12 (configuration not stated)	0.03 (≈ 0.0618 µM)
Cc1cn(-c2c(C3CC(c4ccc(O)cc4)=NO3)c(C)nn2-c2ccccc2)cn1 (configuration not stated)	0.012 (≈ 0.03 µM)
COc1ccc(C2=NOC(c3c(C)nn(-c4ccccc4)c3-n3cnc(C)c3)C2)cc1 (configuration not stated)	0.012 (≈ 0.029 µM)
Cc1nn(-c2ccccc2)c(-n2cncn2)c1C1=CC(c2cccs2)=NC2Nc3ccccc3N12 (configuration not stated)	0.03 (≈ 0.0629 µM)
Cc1nn(-c2ccccc2)c(-n2ccnc2)c1C1CC(c2ccc(F)cc2)=NO1 (configuration not stated)	0.012 (≈ 0.031 µM)
Cc1nn(-c2ccccc2)c(-n2ccnc2)c1C1CC(c2ccccc2)=NO1 (configuration not stated)	0.012 (≈ 0.0325 µM)
COc1ccc(C2=NC3Nc4ccccc4N3C(c3c(C)nn(-c4ccccc4)c3-n3cncn3)=C2)cc1 (configuration not stated)	0.03 (≈ 0.0599 µM)
Cc1nn(-c2ccccc2)c(-n2ccnc2)c1C1=CC(c2cc[nH]c2)=NC2Nc3ccccc3N12 (configuration not stated)	0.03 (≈ 0.0654 µM)
Cc1nn(-c2ccccc2)c(-n2ccnc2)c1C1CC(c2ccc(F)cc2)=NN1 (configuration not stated)	0.012 (≈ 0.0311 µM)
COc1ccc(C2=NNC(c3c(C)nn(-c4ccccc4)c3-n3cnc(C)c3)C2)cc1 (configuration not stated)	0.012 (≈ 0.0291 µM)
Cc1cn(-c2c(C3CC(c4ccccc4)=NN3)c(C)nn2-c2ccccc2)cn1 (configuration not stated)	0.012 (≈ 0.0314 µM)
Cc1nn(-c2ccccc2)c(-n2cncn2)c1C1=CC(c2ccc(O)cc2)=NC2Nc3ccccc3N12 (configuration not stated)	0.03 (≈ 0.0617 µM)
Cc1nn(-c2ccccc2)c(-n2ccnc2)c1C1CC(c2ccccc2)=NN1 (configuration not stated)	0.012 (≈ 0.0326 µM)
Cc1nn(-c2ccccc2)c(-n2ccnc2)c1C1CC(c2ccc(-c3ccccc3)cc2)=NO1 (configuration not stated)	0.012 (≈ 0.0269 µM)
Cc1nn(-c2ccccc2)c(-n2ccnc2)c1C1=CC(c2cccs2)=NC2Nc3ccccc3N12 (configuration not stated)	0.03 (≈ 0.0631 µM)
Cc1cn(-c2c(C3CC(c4ccc(F)cc4)=NO3)c(C)nn2-c2ccccc2)cn1 (configuration not stated)	0.012 (≈ 0.0299 µM)
Cc1nn(-c2ccccc2)c(-n2cncn2)c1C1=CC(c2ccc(F)cc2)=NC2Nc3ccccc3N12 (configuration not stated)	0.03 (≈ 0.0614 µM)
Cc1cn(-c2c(C3CC(c4ccc(O)cc4)=NN3)c(C)nn2-c2ccccc2)cn1 (configuration not stated)	0.012 (≈ 0.0301 µM)
Cc1cn(-c2c(C3CC(c4ccc(-c5ccccc5)cc4)=NN3)c(C)nn2-c2ccccc2)cn1 (configuration not stated)	0.012 (≈ 0.0262 µM)
Cc1nn(-c2ccccc2)c(-n2ccnc2)c1C1CC(c2ccc(Br)cc2)=NO1 (configuration not stated)	0.012 (≈ 0.0268 µM)
Cc1cn(-c2c(C3CC(c4ccc(Br)cc4)=NN3)c(C)nn2-c2ccccc2)cn1 (configuration not stated)	0.012 (≈ 0.026 µM)
COc1ccc(C2=NNC(c3c(C)nn(-c4ccccc4)c3-n3ccnc3)C2)cc1 (configuration not stated)	0.012 (≈ 0.0301 µM)
Cc1nn(-c2ccccc2)c(-n2cncn2)c1C1=CC(c2ccccc2)=NC2Nc3ccccc3N12 (configuration not stated)	0.03 (≈ 0.0638 µM)
COc1ccc(C2=NOC(c3c(C)nn(-c4ccccc4)c3-n3ccnc3)C2)cc1 (configuration not stated)	0.012 (≈ 0.03 µM)
Cc1nn(-c2ccccc2)c(-n2ccnc2)c1C1=CC(c2ccc(F)cc2)=NC2Nc3ccccc3N12 (configuration not stated)	0.03 (≈ 0.0615 µM)
Cc1nn(-c2ccccc2)c(-n2ccnc2)c1C1CC(c2ccc(-c3ccccc3)cc2)=NN1 (configuration not stated)	0.012 (≈ 0.027 µM)
Cc1nn(-c2ccccc2)c(-n2cncn2)c1C1=CC(c2cc[nH]c2)=NC2Nc3ccccc3N12 (configuration not stated)	0.03 (≈ 0.0653 µM)

System: not listed separately
Test: Selectivity index, ratio of EC50 for cytotoxicity against […] cells to EC50 for antiplasmodial activity against Plasmodium falciparum FCR-3 ATCC 30932 infected in human erythrocytes
Type: toxicity, cell-based
Conditions: mouse, read-out: Ratio EC50

Structure (SMILES)	selectivity ratio
CCn1c(=O)/c(=C2\Sc3ccccc3N2C)s/c1=C\c1cccc[n+]1CCCCC(=O)O	> 100
CCn1c(=O)/c(=C2\Sc3ccccc3N2C)s/c1=C/c1cc[n+](C)c(-c2ccccc2)c1	> 100
CCn1c(=O)/c(=C2\Sc3ccccc3N2C)s/c1=C\c1cc[n+](C)c2ccccc12	> 100
CCn1c(=O)/c(=C2\Sc3ccccc3N2C)s/c1=C\c1cccc[n+]1C	> 100
CCn1c(=O)/c(=C2\Sc3ccccc3N2C)s/c1=C/c1cc[n+](CCO)cc1	> 100
C=CCn1c(=O)/c(=C2\Sc3ccccc3N2C)s/c1=C\c1cc[n+](C)cc1	> 100
C=CCn1c(=O)/c(=C2\Sc3ccccc3N2C)s/c1=C\c1cccc[n+]1C	> 100
CCn1c(=O)/c(=C2\Sc3ccccc3N2C)s/c1=C\c1cccc[n+]1CCO	> 100
CCn1c(=O)/c(=C2\Sc3ccccc3N2C)s/c1=C/c1cc[n+](CCCCC(=O)O)cc1	> 100
CCn1c(=O)/c(=C2\Sc3ccccc3N2C)s/c1=C\c1ccc2ccccc2[n+]1C	> 100
CN1/C(=c2\s/c(=C\c3cccc[n+]3C)n(Cc3ccccc3)c2=O)Sc2ccccc21	> 100
CCn1c(=O)/c(=C2\Sc3ccccc3N2C)s/c1=C\c1cccc(-c2ccccc2)[n+]1C	> 100
CN1/C(=c2\s/c(=C\c3cc[n+](C)cc3)n(Cc3ccccc3)c2=O)Sc2ccccc21	> 100
CCn1c(=O)/c(=C2\Sc3ccccc3N2C)s/c1=C\c1cc[n+](C)cc1	> 100

System: Plasmodium falciparum
Test: Antiplasmodial activity against chloroquine sensitive Plasmodium falciparum FCR-3 infected in human erythrocytes incubated for 72 hrs by giemsa staining based assay
Type: functional, organism-based
Conditions: FCR-3, 72 h

Structure (SMILES)	EC50 [nM]
CCn1c(=O)/c(=C2\Sc3ccccc3N2C)s/c1=C\c1cccc[n+]1CCCCC(=O)O	4
CCn1c(=O)/c(=C2\Sc3ccccc3N2C)s/c1=C/c1cc[n+](C)c(-c2ccccc2)c1	4
CCn1c(=O)/c(=C2\Sc3ccccc3N2C)s/c1=C\c1cc[n+](C)c2ccccc12	4
CCn1c(=O)/c(=C2\Sc3ccccc3N2C)s/c1=C\c1cccc[n+]1C	4
CCn1c(=O)/c(=C2\Sc3ccccc3N2C)s/c1=C/c1cc[n+](CCO)cc1	4
C=CCn1c(=O)/c(=C2\Sc3ccccc3N2C)s/c1=C\c1cc[n+](C)cc1	4
C=CCn1c(=O)/c(=C2\Sc3ccccc3N2C)s/c1=C\c1cccc[n+]1C	4
CCn1c(=O)/c(=C2\Sc3ccccc3N2C)s/c1=C\c1cccc[n+]1CCO	4
CCn1c(=O)/c(=C2\Sc3ccccc3N2C)s/c1=C/c1cc[n+](CCCCC(=O)O)cc1	4
CCn1c(=O)/c(=C2\Sc3ccccc3N2C)s/c1=C\c1ccc2ccccc2[n+]1C	4
CN1/C(=c2\s/c(=C\c3cccc[n+]3C)n(Cc3ccccc3)c2=O)Sc2ccccc21	4
CCn1c(=O)/c(=C2\Sc3ccccc3N2C)s/c1=C\c1cccc(-c2ccccc2)[n+]1C	4
CN1/C(=c2\s/c(=C\c3cc[n+](C)cc3)n(Cc3ccccc3)c2=O)Sc2ccccc21	4
CCn1c(=O)/c(=C2\Sc3ccccc3N2C)s/c1=C\c1cc[n+](C)cc1	4

System: Hemozoin
Test: Inhibition of beta-hematin formation at 5 to 100 mM incubated for 48 hrs
Conditions: dose 5-100 mM

Structure (SMILES)	inhibition [%]
O=C(Nc1ccc(Br)cc1)c1ccc2[nH]c(-c3ccc([N+](=O)[O-])o3)nc2c1	< 98
Cc1ccc(C)c(NC(=O)c2ccc3[nH]c(-c4ccc([N+](=O)[O-])o4)nc3c2)c1	< 98
O=C(Nc1ccccc1Cl)c1ccc2[nH]c(-c3ccc([N+](=O)[O-])s3)nc2c1	< 98
O=C(Nc1ccc(Cl)cc1)c1ccc2[nH]c(-c3ccc([N+](=O)[O-])s3)nc2c1	< 98
O=C(Nc1ccccc1Cl)c1ccc2[nH]c(-c3ccc([N+](=O)[O-])o3)nc2c1	< 98
Cc1ccc(NC(=O)c2ccc3[nH]c(-c4ccc([N+](=O)[O-])o4)nc3c2)cc1C	< 98
COc1cc(NC(=O)c2ccc3[nH]c(-c4ccc([N+](=O)[O-])s4)nc3c2)cc(OC)c1OC	< 98
Cc1cc(C)cc(NC(=O)c2ccc3[nH]c(-c4ccc([N+](=O)[O-])o4)nc3c2)c1	< 98
COc1cc(NC(=O)c2ccc3[nH]c(-c4ccc([N+](=O)[O-])o4)nc3c2)cc(OC)c1OC	< 98
Cc1ccccc1NC(=O)c1ccc2[nH]c(-c3ccc([N+](=O)[O-])o3)nc2c1	< 98
Cc1ccc(NC(=O)c2ccc3[nH]c(-c4ccc([N+](=O)[O-])s4)nc3c2)cc1C	< 98
COc1ccc(NC(=O)c2ccc3[nH]c(-c4ccc([N+](=O)[O-])o4)nc3c2)cc1Cl	< 98
O=C(Nc1ccc(Cl)cc1)c1ccc2[nH]c(-c3ccc([N+](=O)[O-])o3)nc2c1	< 98
Cc1ccccc1NC(=O)c1ccc2[nH]c(-c3ccc([N+](=O)[O-])s3)nc2c1	< 98
O=C(Nc1ccc(C(F)(F)F)cc1)c1ccc2[nH]c(-c3ccc([N+](=O)[O-])o3)nc2c1	< 98
COc1ccc(NC(=O)c2ccc3[nH]c(-c4ccc([N+](=O)[O-])s4)nc3c2)cc1Cl	< 98
COc1cccc(NC(=O)c2ccc3[nH]c(-c4ccc([N+](=O)[O-])s4)nc3c2)c1	< 98
Cc1cccc(NC(=O)c2ccc3[nH]c(-c4ccc([N+](=O)[O-])s4)nc3c2)c1	< 98
Cc1cccc(NC(=O)c2ccc3[nH]c(-c4ccc([N+](=O)[O-])o4)nc3c2)c1	< 98
Cc1cc(C)cc(NC(=O)c2ccc3[nH]c(-c4ccc([N+](=O)[O-])s4)nc3c2)c1	< 98
COc1ccc(NC(=O)c2ccc3[nH]c(-c4ccc([N+](=O)[O-])o4)nc3c2)c(OC)c1	< 98
COc1ccc(NC(=O)c2ccc3[nH]c(-c4ccc([N+](=O)[O-])s4)nc3c2)c(OC)c1	< 98
O=C(Nc1ccc(C(F)(F)F)cc1)c1ccc2[nH]c(-c3ccc([N+](=O)[O-])s3)nc2c1	< 98
Cc1ccc(C)c(NC(=O)c2ccc3[nH]c(-c4ccc([N+](=O)[O-])s4)nc3c2)c1	< 98
COc1cccc(NC(=O)c2ccc3[nH]c(-c4ccc([N+](=O)[O-])o4)nc3c2)c1	< 98
O=C(Nc1ccc(Br)cc1)c1ccc2[nH]c(-c3ccc([N+](=O)[O-])s3)nc2c1	< 98
Cc1ccc(NC(=O)c2ccc3[nH]c(-c4ccc([N+](=O)[O-])s4)nc3c2)c(C)c1	< 98
